{"source": "patent US20230400471A1", "about": "“SYSTEMS, COMPOSITIONS AND METHODS OF DETERMINING VIABILITY OF EMBRYOS USING THE SAME” (BioIncept, LLC, priority 2020, published 2023)", "key": {"[1]": {"test_system": "rabbit anti-PIF polyclonal antibody", "experiment": "PIF colorimetric ELISA using rabbit polyclonal antibody, epitope mapping with PIF peptides of various length", "type": "binding", "settings": "for % recovery by Rabbit Polyclonal Antibody: representative value of three repeats; for recovery by PIF colorimetric ELISA using rabbit polyclonal antibody: Table 3, spike concentration not given", "experimental": "(§1) To study PIF peptide and its derivatives of different length for binding to rabbit anti-PIF monoclonal antibody and rabbit anti-PIF polyclonal antibody, PIF peptides of various lengths as listed in Table 2 was synthesized, reconstituted in PBS and two different concentrations were tested by respective colorimetric ELISA following standard protocol. The standards were run in duplicate and the samples were run in triplicate and repeated three times."}, "[2]": {"test_system": "rabbit anti-PIF monoclonal antibody", "experiment": "PIF colorimetric ELISA using rabbit anti-PIF monoclonal antibody, epitope mapping with PIF peptides of various length", "type": "binding", "settings": "for % Recovery by Rabbit Monoclonal Antibody: representative value of three repeats", "experimental": "as §1"}}, "data": [{"substance": "P10-15: PIF peptide, amino acid locations 10-15 (N K P S D D) (NKPSDD) [Clone P10-15]", "values": [{"measurement": "% recovery by Rabbit Polyclonal Antibody", "setting": "[1]; spike concentration 100 ng/ml", "result": 0, "unit": "%"}, {"measurement": "% recovery by Rabbit Polyclonal Antibody", "setting": "[1]; spike concentration 200 ng/ml", "result": 0, "unit": "%"}, {"measurement": "% Recovery by Rabbit Monoclonal Antibody", "setting": "[2]; spike concentration 100 ng/ml", "result": 0, "unit": "%"}, {"measurement": "% Recovery by Rabbit Monoclonal Antibody", "setting": "[2]; spike concentration 200 ng/ml", "result": 0, "unit": "%"}]}, {"substance": "P8-13: PIF peptide, amino acid locations 8-13 (S A N K P S) (SANKPS) [Clone P8-13]", "values": [{"measurement": "% recovery by Rabbit Polyclonal Antibody", "setting": "[1]; spike concentration 100 ng/ml", "result": 0, "unit": "%"}, {"measurement": "% recovery by Rabbit Polyclonal Antibody", "setting": "[1]; spike concentration 200 ng/ml", "result": 0, "unit": "%"}, {"measurement": "% Recovery by Rabbit Monoclonal Antibody", "setting": "[2]; spike concentration 100 ng/ml", "result": 0, "unit": "%"}, {"measurement": "% Recovery by Rabbit Monoclonal Antibody", "setting": "[2]; spike concentration 200 ng/ml", "result": 0, "unit": "%"}]}, {"substance": "P1-13: PIF peptide, amino acid locations 1-13 (M V R I K P G S A N K P S) (MVRIKPGSANKPS) [Clone P1-13]", "values": [{"measurement": "recovery by PIF colorimetric ELISA using rabbit polyclonal antibody", "setting": "[1]", "result": "about 40%"}, {"measurement": "% recovery by Rabbit Polyclonal Antibody", "setting": "[1]; spike concentration 100 ng/ml", "result": 49.8, "unit": "%"}, {"measurement": "% recovery by Rabbit Polyclonal Antibody", "setting": "[1]; spike concentration 200 ng/ml", "result": 31.1, "unit": "%"}, {"measurement": "% Recovery by Rabbit Monoclonal Antibody", "setting": "[2]; spike concentration 100 ng/ml", "result": 0, "unit": "%"}, {"measurement": "% Recovery by Rabbit Monoclonal Antibody", "setting": "[2]; spike concentration 200 ng/ml", "result": 0, "unit": "%"}]}, {"substance": "P1-7: PIF peptide, amino acid locations 1-7 (M V R I K P G) (MVRIKPG) [Clone P1-7]", "values": [{"measurement": "% recovery by Rabbit Polyclonal Antibody", "setting": "[1]; spike concentration 100 ng/ml", "result": 0, "unit": "%"}, {"measurement": "% recovery by Rabbit Polyclonal Antibody", "setting": "[1]; spike concentration 200 ng/ml", "result": 0, "unit": "%"}, {"measurement": "% Recovery by Rabbit Monoclonal Antibody", "setting": "[2]; spike concentration 100 ng/ml", "result": 0, "unit": "%"}, {"measurement": "% Recovery by Rabbit Monoclonal Antibody", "setting": "[2]; spike concentration 200 ng/ml", "result": 0, "unit": "%"}]}, {"substance": "P8-15: PIF peptide, amino acid locations 8-15 (S A N K P S D D) (SANKPSDD) [Clone P8-15]", "values": [{"measurement": "% recovery by Rabbit Polyclonal Antibody", "setting": "[1]; spike concentration 100 ng/ml", "result": 0, "unit": "%"}, {"measurement": "% recovery by Rabbit Polyclonal Antibody", "setting": "[1]; spike concentration 200 ng/ml", "result": 0, "unit": "%"}, {"measurement": "% Recovery by Rabbit Monoclonal Antibody", "setting": "[2]; spike concentration 100 ng/ml", "result": 0, "unit": "%"}, {"measurement": "% Recovery by Rabbit Monoclonal Antibody", "setting": "[2]; spike concentration 200 ng/ml", "result": 0, "unit": "%"}]}, {"substance": "MVRIKPGSANKPSDD [Clone P1-15]", "values": [{"measurement": "recovery by PIF colorimetric ELISA using rabbit polyclonal antibody", "setting": "[1]", "result": 100, "unit": "%"}, {"measurement": "% recovery by Rabbit Polyclonal Antibody", "setting": "[1]; spike concentration 500 ng/ml", "result": 115.0, "unit": "%"}, {"measurement": "% recovery by Rabbit Polyclonal Antibody", "setting": "[1]; spike concentration 1000 ng/ml", "result": 101.4, "unit": "%"}, {"measurement": "recovery by PIF colorimetric ELISA using rabbit anti-PIF monoclonal antibody", "setting": "[2]; Table 3, spike concentration not given", "result": 100, "unit": "%"}, {"measurement": "% Recovery by Rabbit Monoclonal Antibody", "setting": "[2]; spike concentration 500 ng/ml", "result": 100.0, "unit": "%"}, {"measurement": "% Recovery by Rabbit Monoclonal Antibody", "setting": "[2]; spike concentration 1000 ng/ml", "result": 100.0, "unit": "%"}]}]}
